Test results as given in PubChem BioAssay AID1963853 (Molecular Pharmacology Branch, DTP, NCI, 2024).

Tested on: 266295-075-R-J1-PDC spheroid viability
Assay: Anticancer human tumor 266295-075-R-J1-PDC patient-derived head and neck squamous carcinoma cell line growth inhibition [POLQ]
Conditions: spheroids with HUVEC and MSC; for IC50: curve of first compound; for viability, T/C: stronger effect = lower value; active = viability on the fitted dose curve at most 10% of control; inactive = the rest
Method: Multicellular complex tumor spheroid response to Polymerase (POL) inhibitors (novobiocin, ART-558, RP6685) in combination with a variety of drugs and investigational agents in selected tumor cell lines
The POL inhibitors (novobiocin, ART-558, and RP6685) were evaluated both individually and in combination with standard of care and investigational anticancer small molecules within a complex spheroid model of solid tumors. . Complex spheroids include a stromal component modeled by human endothelial cells (HUVEC) and fibroblasts modeled by human mesenchymal stem cells (MSCs). The concentration ranges selected for each drug and investigational agent were based upon clinically achievable concentrations if the clinical Cmax of the agent was known.
Compounds. The drugs and investigational agents: novobiocin (NSC847541), ART-558 (NSC835418), RP-6685 (NSC848927), peposertib (NSC802822), ceralasertib (NSC780249), elimusertib (NSC800525), camonsertib (NSC841442), AZD-1390 (NSC803789), olaparib (NSC753686), talazoparib (NSC767125), rucaparib (NSC756644), sotorasib (NSC818433), MRTX-1133 (NSC836407), SN-38 (NSC673596), topotecan (NSC609699), epotoside (NSC141540), doxorubicin (NSC123127), gemcitabine (NSC613327), 5-fluorouracil (NSC19893), paclitaxel (NSC125973), vemurafenib (NSC761431), MSA-2 (NSC828583), SN-011 (NSC837082), adavosertib (NSC754352), prexasertib (NSC758257), carboplatin (NSC241240) and oxaliplatin (NSC266046), were obtained from the National Cancer Institute (NCI) Developmental Therapeutics Program Chemical Repository (21). The FDA-approved anticancer drug set is available from the Developmental Therapeutics Program at https://dtp.cancer.gov/organization/dscb/obtaining/. […] The stock solutions were prepared in dimethyl sulfoxide (DMSO, Sigma-Aldrich, St. Louis, MO, cat. D2650), except for the platinum compounds which were prepared in saline (Quality Biological, Gaithersburg, MD, cat. 114-055-101), at 800-fold the tested concentration and stored at -70 degrees C prior to their use. All drugs and investigational agents were tested over a range starting from a high concentration at or near the clinical Cmax and decreasing in half-log increments. If the clinical Cmax for an agent had not been determined, the highest concentration tested was 10 microM, except for SN-38, which was tested at a high concentration of 1 microM.
Cell Culture. All cells were maintained in an incubator at 37 degrees C and 5% CO2 with 95% humidity. The PDC lines were cultured according to standard operating procedures established by the NCI PDMR (https://pdmr.cancer.gov). Table 3 of the manuscript, lists the cell lines along with the number of the three cell types plated to form the mct-spheroids and media for tumor cell growth. After thawing, all PDC lines, except 997537-175-T-J1-PDC and 415267-285-R-J2-PDC, were cultured in Matrigel-coated flasks prepared with a working solution of 1X Ham's F-12 nutrient mix, without supplementation (Thermo Fisher Scientific, cat. 11765054), 100 U/mL penicillin-streptomycin (Thermo Fisher Scientific, cat. 15140122), and 2.5% Matrigel (Corning Inc., Corning, NY, cat. 354248) for the first three passages. The two PDC lines 997537-175-T-J1-PDC and 415267-285-R-J2-PDC were cultured on uncoated flasks. The 857933-349-R-J2-PDC line was cultured in 6C/Colon 1B media containing advanced DMEM/F-12 (Thermo Fisher Scientific, cat. 12634028), 10 mM HEPES (Thermo Fisher Scientific, cat. 15630080), 1X GlutaMAX supplement (Thermo Fisher Scientific, cat. 35050061), 0.1 mg/mL primocin (InvivoGen, San Diego, CA, cat. ant-pm-2), 10% defined fetal bovine serum, heat inactivated (HyClone Laboratories Inc., Logan, UT, cat. SH30070.03HI), 50% L-WRN conditioned media (ATCC, cat. CRL-3276), 1.25 mM N-Acetyl-L-cysteine (Sigma-Aldrich, cat. A9165), 10 mM nicotinamide (Sigma-Aldrich, cat. N0636), 1X B-27 supplement (Thermo Fisher Scientific, cat. 17504044), 1X N-2 supplement (Thermo Fisher Scientific, cat. […]

[1] = second compound 0.0316 µM, first compound 0.00316 µM
[2] = second compound 0.0316 µM, first compound 0.01 µM
[3] = second compound 0.0316 µM, first compound 0.0316 µM
[4] = second compound 0.0316 µM, first compound 0.1 µM
[5] = second compound 0.1 µM, first compound 0.00316 µM
[6] = second compound 0.1 µM, first compound 0.01 µM
[7] = second compound 0.1 µM, first compound 0.0316 µM
[8] = second compound 0.1 µM, first compound 0.1 µM
[9] = second compound 0.316 µM, first compound 0.00316 µM
[10] = second compound 0.316 µM, first compound 0.01 µM
[11] = second compound 0.316 µM, first compound 0.0316 µM
[12] = second compound 0.316 µM, first compound 0.1 µM
[13] = second compound 1 µM, first compound 0.00316 µM
[14] = second compound 1 µM, first compound 0.01 µM
[15] = second compound 1 µM, first compound 0.0316 µM
[16] = second compound 1 µM, first compound 0.1 µM
[17] = second compound 3.16 µM, first compound 0.00316 µM
[18] = second compound 3.16 µM, first compound 0.01 µM
[19] = second compound 3.16 µM, first compound 0.0316 µM
[20] = second compound 3.16 µM, first compound 0.1 µM
[21] = second compound 10 µM, first compound 0.00316 µM
[22] = second compound 10 µM, first compound 0.01 µM
[23] = second compound 10 µM, first compound 0.0316 µM
[24] = second compound 10 µM, first compound 0.1 µM
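Note: spheroids exposed to compounds for seven days before readout.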

CC[C@@]1(O)C(=O)OCc2c1cc1n(c2=O)Cc2cc3c(CN(C)C)c(O)ccc3nc2-1 + COC1C(OC(N)=O)C(O)C(Oc2ccc3c(O)c(NC(=O)c4ccc(O)c(CC=C(C)C)c4)c(=O)oc3c2C)OC1(C)C
> 0.1 µM: IC50 (second compound 0.0316 µM) | IC50 (second compound 0.1 µM) | IC50 (second compound 0.316 µM) | IC50 (second compound 1 µM) | IC50 (second compound 3.16 µM) | IC50 (second compound 10 µM)
inactive: viability, T/C (second compound 0.0316 µM, first compound 0.000316 µM) 84.1% | viability, T/C (second compound 0.0316 µM, first compound 0.001 µM) 99.8% | viability, T/C [1] 84.9% | viability, T/C [2] 96.9% | viability, T/C [3] 89.4% | viability, T/C [4] 104% | viability, T/C (second compound 0.1 µM, first compound 0.000316 µM) 87.2% | viability, T/C (second compound 0.1 µM, first compound 0.001 µM) 87.7% | viability, T/C [5] 90.5% | viability, T/C [6] 100% | viability, T/C [7] 103% | viability, T/C [8] 88% | viability, T/C (second compound 0.316 µM, first compound 0.000316 µM) 102% | viability, T/C (second compound 0.316 µM, first compound 0.001 µM) 85.4% | viability, T/C [9] 75.8% | viability, T/C [10] 98.2% | viability, T/C [11] 89.4% | viability, T/C [12] 89.1% | viability, T/C (second compound 1 µM, first compound 0.000316 µM) 99% | viability, T/C (second compound 1 µM, first compound 0.001 µM) 90.8% | viability, T/C [13] 109% | viability, T/C [14] 89.2% | viability, T/C [15] 114% | viability, T/C [16] 100% | viability, T/C (second compound 3.16 µM, first compound 0.000316 µM) 114% | viability, T/C (second compound 3.16 µM, first compound 0.001 µM) 97% | viability, T/C [17] 85.3% | viability, T/C [18] 91.2% | viability, T/C [19] 88.3% | viability, T/C [20] 96.9% | viability, T/C (second compound 10 µM, first compound 0.000316 µM) 95.8% | viability, T/C (second compound 10 µM, first compound 0.001 µM) 98.5% | viability, T/C [21] 97.8% | viability, T/C [22] 107% | viability, T/C [23] 95.4% | viability, T/C [24] 94.5%

COc1cccc(OCCCN)c1-c1cc(Nc2cnc(C#N)cn2)n[nH]1 + Cc1cccc(N(C)C(=O)C2C(O)CCN2c2nc(C)cc(C(F)(F)F)c2C#N)c1
> 1 µM: IC50 (second compound 0.0316 µM) | IC50 (second compound 0.1 µM) | IC50 (second compound 0.316 µM) | IC50 (second compound 3.16 µM) | IC50 (second compound 10 µM)
0.985 µM: IC50 (second compound 1 µM)
inactive: viability, T/C [1] 128% | viability, T/C [2] 127% | viability, T/C [3] 87.2% | viability, T/C [4] 80% | viability, T/C (second compound 0.0316 µM, first compound 0.316 µM) 81.7% | viability, T/C (second compound 0.0316 µM, first compound 1 µM) 72% | viability, T/C [5] 101% | viability, T/C [6] 101% | viability, T/C [7] 83.3% | viability, T/C [8] 76.3% | viability, T/C (second compound 0.1 µM, first compound 0.316 µM) 79.1% | viability, T/C (second compound 0.1 µM, first compound 1 µM) 62% | viability, T/C [9] 109% | viability, T/C [10] 90.7% | viability, T/C [11] 68% | viability, T/C [12] 71.1% | viability, T/C (second compound 0.316 µM, first compound 0.316 µM) 72.1% | viability, T/C (second compound 0.316 µM, first compound 1 µM) 63.9% | viability, T/C [13] 127% | viability, T/C [14] 85.5% | viability, T/C [15] 89.8% | viability, T/C [16] 75.1% | viability, T/C (second compound 1 µM, first compound 0.316 µM) 66.7% | viability, T/C (second compound 1 µM, first compound 1 µM) 50.1% | viability, T/C [17] 106% | viability, T/C [18] 101% | viability, T/C [19] 77.7% | viability, T/C [20] 77.7% | viability, T/C (second compound 3.16 µM, first compound 0.316 µM) 75.2% | viability, T/C (second compound 3.16 µM, first compound 1 µM) 64.8% | viability, T/C [21] 107% | viability, T/C [22] 108% | viability, T/C [23] 81.5% | viability, T/C [24] 74.3% | viability, T/C (second compound 10 µM, first compound 0.316 µM) 58.5% | viability, T/C (second compound 10 µM, first compound 1 µM) 75.3%
